{"source": "patent US10421769B2", "about": "“Anticancer property studies of chiral palladium N-heterocyclic carbene complexes and process for preparation thereof” (Indian Institute of Technology Bombay, priority 2017, dated 2019)", "key": {"MCF-7 cells [1]": {"test_system": "MCF-7 cells", "experiment": "Sulforhodamine B assay, proliferation of MCF-7 cells", "type": "cell-based, human", "details": "MCF-7 breast cancer cells, one cell cycle (48 h), SRB", "protocol": "(§1) The present invention further provides a Sulforhodamine B assay method for investigating the anti-cancer efficacies of the compounds of the present Pd—NHC series on MCF-7, HeLa, A549, B16-F10 and EMT6/AR1 cancer cell lines and also for a comparative study on normal skin cell line L929 and normal epithelial breast cells MCF10A. The said Sulforhodamine B assay is conducted as per reported method (Skehan et al., J. Natl. Cancer Inst. 1990, 82, 1107).\n(§2) Experiment: The anti-proliferative activity of the present palladium N-heterocyclic carbene complexes on two different cancer cell lines MCF-7 and HeLa is tested using Sulforhodamine B assay to reveal their anti-tumor properties. The evaluation of growth inhibition of these complexes is done from their IC50 values for the inhibition of cell growth. The IC50 values are compared with Cisplatin to determine any increase in efficacy.\nMethod: The effects of present series of palladium N-heterocyclic carbene complexes, such as compounds (1S,2S,5R)-(1-3)b and (1R,2R,5S)-(1-3)b; (1S,2S,5R)-(1, 3)c and (1R,2R,5S)-(1, 3)c on the proliferation of MCF-7 cells after one cell cycle are determined by Sulforhodamine B assay. In particular, 1×10^5 cells/mL are seeded in each well in 96-well plates for 24 h and then incubated without or with different concentrations of these complexes at 37° C. for one cell cycle (48 h). After incubation of cells with the complexes for one cell cycle, cell growth is stopped by the addition of 50% trichloroacetic acid and stained with 0.4% sulforhodamine B dissolved in 1% acetic acid. Unbound dye is removed by washing with 1% acetic acid, and the protein content is determined by measuring absorbance at 520 nm in a Bio-Rad model 680 microplate reader after extracting with 10 mM tris base. IC50 value is calculated as the concentration of the complex that inhibited the proliferation of cells by 50% relative to the untreated control cells. The anticancer activities of the present Pd—NHC compounds are graphically represented in accompanying FIG. 1.\n(§3) The data obtained is graphically represented in accompanying FIG. 2."}, "HCT 116 cell lines": {"test_system": "HCT 116 cell lines", "details": "HCT 116, MTT, 72 hours, Haque et al. Metallomics 2013; read-out: HCT-116 (IC50 value), prior art (b); cited from earlier work"}, "[2]": {"test_system": "intracellular ROS in MCF-7 cells", "experiment": "Reactive oxygen species (ROS) assay using H2DCFDA, flow cytometry", "type": "cell-based, human", "details": "MCF-7, 30 μM, 24 h, positive control", "protocol": "Experiment: Reactive oxygen species (ROS) production in cells when treated with (1R,2R,5S)-1c, was estimated by ROS assay using 2′,7′-dichlorodihydrofluorescein diacetate (H2DCFDA). MCF-7 cells (5 mL) were seeded in 60 mm cell culture dishes at a density of 1.5×10^5 cells/mL. After cell attachment, they were incubated with 4 and 8 μM (1R,2R,5S)-1c for 24 h. Cells treated with 30 μM hydrogen peroxide was used as a positive control. Following 24 h of incubation, the cells were processed and analyzed using flow cytometry. The percentage of DCFH-DA positive MCF-7 cells in the absence and presence 4 and 8 μM (1R,2R,5S)-1c was determined by flow cytometry. 30 μM H2O2 was used as a positive control. Data are average of three independent set of experiments and ±indicates S.D."}, "HeLa cells [3]": {"test_system": "HeLa cells", "experiment": "Sulforhodamine B assay, proliferation of HeLa cells", "type": "cell-based, human", "details": "HeLa cervical cancer cells, 24 h, SRB", "protocol": "as §1, §2\nThe seeded cells in 96-well plates are incubated with the complex for 24 h and the assay is performed.\nas §3"}, "MCF-7 cells [4]": {"test_system": "MCF-7 cells", "experiment": "Live dead assay by flow cytometry using propidium iodide", "type": "cell-based, human", "details": "MCF-7, 4 μM, 48 h", "protocol": "MCF-7 cells (5 mL) were seeded in 60 mm cell culture dishes at a density of 1.5×10^5 cells/mL. Cells were incubated with 4 and 8 μM (1R,2R,5S)-1c for 48 h for live dead assay. After the required incubation, cells were processed and analyzed by flow cytometry. Percentage of live and dead MCF-7 cells in the absence and presence of 4 and 8 μM (1R,2R,5S)-1c and 4 μM cisplatin was determined by flow cytometry using propidium iodide (PI)."}, "MCF-7 cells [5]": {"test_system": "MCF-7 cells", "details": "MCF-7, one cell cycle, SRB, Ghosh et al. JACS 2007; read-out: MCF-7 (IC50 value), prior art (a); cited from earlier work"}, "HeLa cells [6]": {"test_system": "HeLa cells", "details": "one cell cycle, SRB, Ghosh et al. JACS 2007, read-out: HeLa (IC50 value), prior art (a); cited from earlier work"}, "HCT 116 cells": {"test_system": "HCT 116 cells", "details": "HCT 116, one cell cycle, SRB, Ghosh et al. JACS 2007; read-out: HCT-116 (IC50 value), prior art (a); cited from earlier work"}}, "note": "Read-outs that look alike come from different tables or passages of the source."}
{"molecule": "trans-[1-(1S)-menthyl-4-(allyl)-1,2,4-triazol-5-ylidene]2PdBr2 [(1S,2S,5R)-2b]", "values": [{"measurement": "IC50", "setting": "MCF-7 cells [1]; read-out: IC50 (μM), MCF-7", "result": "~10", "unit": "µM"}]}
{"molecule": "CCCCN1C=CN(Cc2ccccc2)[CH]1[Pd]([Cl])([Cl])[CH]1N(CCCC)C=CN1Cc1ccccc1", "note": "(stereo not shown) [Compound 9]", "values": [{"measurement": "IC50", "setting": "HCT 116 cell lines", "result": 6.6, "unit": "µM"}]}
{"molecule": "trans-[1-(1R)-menthyl-4-(benzyl)-1,2,4-triazol-5-ylidene]2PdBr2 [(1R,2R,5S)-3b]", "values": [{"measurement": "IC50", "setting": "MCF-7 cells [1]; read-out: IC50 (μM), MCF-7", "result": "> 10", "unit": "µM"}]}
{"molecule": "trans-[1-(1R)-menthyl-4-(benzyl)-1,2,4-triazol-5-ylidene]2Pd(OCOCF3)2 [(1R,2R,5S)-3c]", "values": [{"measurement": "IC50", "setting": "MCF-7 cells [1]; read-out: IC50 (μM), MCF-7", "result": "> 10", "unit": "µM"}]}
{"molecule": "trans-[1-(1S)-menthyl-4-(benzyl)-1,2,4-triazol-5-ylidene]2PdBr2 [(1S,2S,5R)-3b]", "values": [{"measurement": "IC50", "setting": "MCF-7 cells [1]; read-out: IC50 (μM), MCF-7", "result": "> 10", "unit": "µM"}]}
{"molecule": "trans-[1-(1S)-menthyl-4-(ethyl)-1,2,4-triazol-5-ylidene]2PdBr2 [(1S,2S,5R)-1b]", "values": [{"measurement": "IC50", "setting": "MCF-7 cells [1]; read-out: IC50 (μM), MCF-7", "result": "2.2 ± 0.1", "unit": "µM"}]}
{"molecule": "OO", "note": "[Compound H2O2, hydrogen peroxide, reference compound]", "values": [{"measurement": "% of DCFH-DA positive cells", "setting": "[2]", "result": "72 ± 4", "unit": "%"}]}
{"molecule": "trans-[1-(1R)-menthyl-4-(ethyl)-1,2,4-triazol-5-ylidene]2PdBr2 [(1R,2R,5S)-1b]", "values": [{"measurement": "IC50", "setting": "MCF-7 cells [1]; read-out: IC50 (μM), MCF-7", "result": "2.3 ± 1", "unit": "µM"}]}
{"molecule": "trans-[1-(1S)-menthyl-4-(ethyl)-1,2,4-triazol-5-ylidene]2Pd(OCOCF3)2 [(1S,2S,5R)-1c]", "values": [{"measurement": "IC50", "setting": "MCF-7 cells [1]; read-out: IC50 (μM), MCF-7", "result": "0.7 ± 0.005", "unit": "µM"}, {"measurement": "IC50", "setting": "MCF-7 cells [1]; unit nM printed in cell or sentence, read-out: IC50, MCF-7 (values given in nM)", "result": "0.7 ± 0.005", "unit": "µM"}, {"measurement": "IC50", "setting": "HeLa cells [3]; listed as drawing 40", "result": "2.6 ± 1.6", "unit": "µM"}, {"measurement": "IC50", "setting": "HeLa cells [3]; listed as drawing 47", "result": "2.6 ± 1.6", "unit": "µM"}]}
{"molecule": "N.N.[Cl][Pt][Cl]", "note": "[cisplatin, cis-diammine-dichloroplatinum (II), reference compound]", "values": [{"measurement": "IC50", "setting": "MCF-7 cells [1]; read-out: IC50 (μM), MCF-7", "result": "14.9 ± 0.4", "unit": "µM"}, {"measurement": "IC50", "setting": "HeLa cells [3]", "result": "8.5 ± 0.7", "unit": "µM"}, {"measurement": "Dead %", "setting": "MCF-7 cells [4]", "result": "8 ± 2", "unit": "%"}, {"measurement": "Live %", "setting": "MCF-7 cells [4]", "result": "93 ± 4", "unit": "%"}, {"measurement": "IC50", "setting": "MCF-7 cells [5]", "result": 15, "unit": "µM"}, {"measurement": "IC50", "setting": "HeLa cells [6]", "result": 8, "unit": "µM"}, {"measurement": "IC50", "setting": "HCT 116 cells", "result": 16, "unit": "µM"}]}
{"molecule": "C=CCN1C=CN(CCCC)[CH]1[Pd]([Cl])([Cl])[CH]1N(CC=C)C=CN1CCCC", "note": "(stereo not shown) [Compound 8]", "values": [{"measurement": "IC50", "setting": "HCT 116 cell lines", "result": 26.5, "unit": "µM"}]}
{"molecule": "trans-[1-(1S)-menthyl-4-(benzyl)-1,2,4-triazol-5-ylidene]2Pd(OCOCF3)2 [(1S,2S,5R)-3c]", "values": [{"measurement": "IC50", "setting": "MCF-7 cells [1]; read-out: IC50 (μM), MCF-7", "result": "> 10", "unit": "µM"}]}
{"molecule": "trans-[1-(1R)-menthyl-4-(allyl)-1,2,4-triazol-5-ylidene]2PdBr2 [(1R,2R,5S)-2b]", "values": [{"measurement": "IC50", "setting": "MCF-7 cells [1]; read-out: IC50 (μM), MCF-7", "result": "~10", "unit": "µM"}]}
